pIC50: −log10 of the molar value.

In the assay the target is T1, human TYRO3 (Homo sapiens, UniProt Q06418).
T1 construct: purchased Invitrogen
T1 sequence (Q06418 41-890): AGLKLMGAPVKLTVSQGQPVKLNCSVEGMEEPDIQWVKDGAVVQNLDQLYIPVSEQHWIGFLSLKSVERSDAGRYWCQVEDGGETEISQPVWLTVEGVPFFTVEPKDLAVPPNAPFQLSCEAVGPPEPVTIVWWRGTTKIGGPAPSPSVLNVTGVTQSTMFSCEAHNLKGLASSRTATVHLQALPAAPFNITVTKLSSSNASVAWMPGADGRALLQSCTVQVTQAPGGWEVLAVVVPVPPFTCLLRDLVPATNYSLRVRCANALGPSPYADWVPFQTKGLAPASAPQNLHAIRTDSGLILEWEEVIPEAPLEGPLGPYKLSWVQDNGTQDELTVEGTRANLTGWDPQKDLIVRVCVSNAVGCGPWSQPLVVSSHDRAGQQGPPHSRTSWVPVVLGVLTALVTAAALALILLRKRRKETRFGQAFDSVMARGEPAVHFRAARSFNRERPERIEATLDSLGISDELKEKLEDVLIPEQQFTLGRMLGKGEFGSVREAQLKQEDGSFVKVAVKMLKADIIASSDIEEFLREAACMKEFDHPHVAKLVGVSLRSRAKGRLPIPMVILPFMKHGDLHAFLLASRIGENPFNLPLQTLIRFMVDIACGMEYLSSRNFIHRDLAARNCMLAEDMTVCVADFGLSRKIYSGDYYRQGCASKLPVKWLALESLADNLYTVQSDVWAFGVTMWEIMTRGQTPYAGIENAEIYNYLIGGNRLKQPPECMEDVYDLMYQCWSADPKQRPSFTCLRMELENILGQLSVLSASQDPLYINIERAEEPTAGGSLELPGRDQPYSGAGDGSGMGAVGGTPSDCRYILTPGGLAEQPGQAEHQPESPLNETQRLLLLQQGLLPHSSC
Briefly: HTRF KinEASE-TK biochemical potency assay, TYRO3. The settings on record: 1 nM TYRO3, 700 μM ATP, 800 nM TK Substrate-biotin. An outline of the steps: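 Recombinant human kinase preincubated 1 h at RT with compound, then reacted 2 h at RT with final 5 nM AXL or 1 nM TYRO3/MER, 800 nM TK Substrate-biotin and 700 μM ATP in HEPES pH 7.4, 10 mM MgCl2, 1% DMSO. Phosphorylation read by HTRF 665/620 ratio, expressed as percent activity.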
(In TR-FRET formats the signal depends on donor and acceptor labels being close together.)
Take `CC1(N[C@H]2CCOC2)CCc2ccc(-c3cnc4[nH]nc(-c5ccc(S(=O)(=O)C6CC6)cc5)c4c3)cc2CC1` (stereo partly drawn) [Example 115, (3S)-N-(2-{3-[4-(Cyclopropanesulfonyl)phenyl]-1H-pyrazolo[3,4-b]pyridin-5-yl}-7-methyl-6,7,8,9-tetrahydro-5H-benzo[7]annulen-7-yl)oxolan-3-amine]: the pIC50 (commonly the negative decadic logarithm of the IC50, by convention in mol/L) is 6.00 to 7.00.

The compound `C[C@@H]1CCCN1C1(C)CCc2ccc(-c3cnc4[nH]nc(-c5ccc(C(=O)N[C@H]6CCOC6)cc5)c4c3)cc2CC1` (stereo partly drawn) [Example 117, 4-(5-{7-Methyl-7-[(2R)-2-methylpyrrolidin-1-yl]-6,7,8,9-tetrahydro-5H-benzo[7]annulen-2-yl}-1H-pyrazolo[3,4-b]pyridin-3-yl)-N-[(3S)-oxolan-3-yl]benzamide] had a pIC50 of under 6.00.

With `C[C@@H]1CCCN1C1(C)CCc2ccc(-c3cnc4[nH]nc(-c5ccc(C(=O)N6CCCC6)cc5)c4c3)cc2CC1` (stereo partly drawn) [Example 118, (2R)-2-Methyl-1-(7-methyl-2-{3-[4-(pyrrolidine-1-carbonyl)phenyl]-1H-pyrazolo[3,4-b]pyridin-5-yl}-6,7,8,9-tetrahydro-5H-benzo[7]annulen-7-yl)pyrrolidine], the pIC50 was under 6.00.

On to `Cc1cc(-c2n[nH]c3ncc(-c4ccc5c(c4)CCN(C4CC4)CC5)cc23)ccc1C(=O)N1CCNCC1` [Example 119, 3-Cyclopropyl-7-{3-[3-methyl-4-(piperazine-1-carbonyl)phenyl]-1H-pyrazolo[3,4-b]pyridin-5-yl}-2,3,4,5-tetrahydro-1H-3-benzazepine], for which the pIC50 was over 7.00.

With `CC1(N2CCc3ccc(-c4cnc5[nH]nc(-c6ccc(S(=O)(=O)C7CC7)cc6)c5c4)cc3CC2)CCCC1` [Example 120, 7-{3-[4-(Cyclopropanesulfonyl)phenyl]-1H-pyrazolo[3,4-b]pyridin-5-yl}-3-(1-methylcyclopentyl)-2,3,4,5-tetrahydro-1H-3-benzazepine], the pIC50 is 6.00 to 7.00.

Compound `O=C1OCCN1c1ccc(-c2n[nH]c3ncc(-c4ccc5c(c4)CC[C@@H](N4C6COCC4C6)CC5)cc23)cc1` [Example 121, 3-(4-{5-[(7S)-7-{3-oxa-6-azabicyclo[3.1.1]heptan-6-yl}-6,7,8,9-tetrahydro-5H-benzo[7]annulen-2-yl]-2H-pyrazolo[3,4-b]pyridin-3-yl}phenyl)-1,3-oxazolidin-2-one] gave a pIC50 of 6.00 to 7.00.

The compound `O=C1CCCN1c1ccc(-c2n[nH]c3ncc(-c4ccc5c(c4)CC[C@@H](N4C6COCC4C6)CC5)cc23)cc1` [Example 122, 1-(4-{5-[(7S)-7-{3-oxa-6-azabicyclo[3.1.1]heptan-6-yl}-6,7,8,9-tetrahydro-5H-benzo[7]annulen-2-yl]-2H-pyrazolo[3,4-b]pyridin-3-yl}phenyl)pyrrolidin-2-one] had a negative logarithm of the IC50 (pIC50) of under 6.00.

`COCCOc1ccc(-c2n[nH]c3ncc(-c4ccc5c(c4)CC[C@@H](N4C6COCC4C6)CC5)cc23)cc1` [Example 123, 6-[(7S)-2-{3-[4-(2-methoxyethoxy)phenyl]-2H-pyrazolo[3,4-b]pyridin-5-yl}-6,7,8,9-tetrahydro-5H-benzo[7]annulen-7-yl]-3-oxa-6-azabicyclo[3.1.1]heptane]: the pIC50 is 6.00 to 7.00.

Regarding `CC(C)(C)S(=O)(=O)c1ccc(-c2n[nH]c3ncc(-c4ccc5c(c4)CC[C@@H](N4C6COCC4C6)CC5)cc23)cc1` [Example 124, 6-[(7S)-2-{3-[4-(2-methylpropane-2-sulfonyl)phenyl]-2H-pyrazolo[3,4-b]pyridin-5-yl}-6,7,8,9-tetrahydro-5H-benzo[7]annulen-7-yl]-3-oxa-6-azabicyclo[3.1.1]heptane], the pIC50 was 6.00 to 7.00.

The compound `CN(C)C(=O)c1ccc(-c2n[nH]c3ncc(-c4ccc5c(c4)CC[C@@H](N4C6COCC4C6)CC5)cc23)cc1` [Example 125, N,N-Dimethyl-4-{5-[(7S)-7-{3-oxa-6-azabicyclo[3.1.1]heptan-6-yl}-6,7,8,9-tetrahydro-5H-benzo[7]annulen-2-yl]-2H-pyrazolo[3,4-b]pyridin-3-yl}benzamide] had a pIC50 of 6.00 to 7.00.

Regarding `c1cc2c(cc1-c1cnc3[nH]nc(-c4ccc(N5C[C@H]6C[C@@H]5CO6)cc4)c3c1)CC[C@@H](N1C3COCC1C3)CC2` [Example 126, (1R,4R)-5-(4-{5-[(7S)-7-{3-oxa-6-azabicyclo[3.1.1]heptan-6-yl}-6,7,8,9-tetrahydro-5H-benzo[7]annulen-2-yl]-2H-pyrazolo[3,4-b]pyridin-3-yl}phenyl)-2-oxa-5-azabicyclo[2.2.1]heptane], the pIC50 was under 6.00.

`FC1CN(c2ccc(-c3c[nH]c4ncc(-c5ccc6c(c5)CC[C@@H](N5C7COCC5C7)CC6)cc34)cc2)C1` [Example 127, 6-[(7S)-2-{3-[4-(3-fluoroazetidin-1-yl)phenyl]-1H-pyrrolo[2,3-b]pyridin-5-yl}-6,7,8,9-tetrahydro-5H-benzo[7]annulen-7-yl]-3-oxa-6-azabicyclo[3.1.1]heptane]: the pIC50 is 6.00 to 7.00.

Source of the values: patent US20240246967A1, “AXL COMPOUNDS” (ARCUS BIOSCIENCES, INC., priority 2021, published 2024).
